According to US9248162B2, “Factor H for treatment of rheumatoid arthritis” (Baxter International Inc., priority 2013, dated 2016):
Several values for one entry are separate records, joined by “and”; a condition that tells them apart may be missing. Equal values may be shown once.

Legend:
[1] = test system: collagen antibody-induced arthritis; assay: Mouse CAIA: ankle histology scores (H & E); assay type: in vivo, Balb C mice; design: key to Score From H & E: Inflammation: 0: normal; 1: minimal infiltration of inflammatory cells in periarticular tissue; 2: mild infiltration; 3: moderate infiltration with moderate edema; 4: marked infiltration with marked edema; 5: severe infiltration with severe edema; key to Exostosis, Summary (significance) / Composite, Summary (significance) / Pannus, Summary (significance) / Cartilage, Summary (significance) / Inflammation, Summary (significance): ns: = not significant; *: = P < 0.05; **: = P < 0.01; ***: = P < 0.001; Composite Biohistopathology Score, group value / Composite Biohistopathology Score: scale not given here
Experimental: (§1) Balb C mice (n=10 per cohort) were used to determine the efficacy of Factor H (FH) during […]. The mice were treated with ArthritoMAb (anti-collagen) antibody cocktail (2 mg, i.v.) on day 1, followed 7 days later with an injection of LPS (50 μg, i.p.). On day 8, hind paw volumes were measured for each animal and distributed to various treatment groups.
(§2) Dosing with the different agents was started on day 8 as described in Table 3.
(§3) Hind paw volumes were measured on day 8, 11, 12, 13, 15, 19 and 22 (endpoint). The age at start date was 7 to 9 weeks. Body weights were measured bi-weekly to the endpoint (Table 4). At the endpoint, tissue samples were processed for histology and submitted to a pathologist for independent analysis. Sampling 1 was performed at the endpoint. The hind limbs were preserved in 10% formalin. Sampling 2 was performed at the endpoint for group 4 animals. Blood was collected by terminal cardiac puncture. The blood was processed for anti-coagulant. The kidneys were additionally preserved in formalin and followed with 70% EtOH. Samples were scored for inflammation, pannus (granulation tissue), cartilage damage, bone resorption and exostosis (Table 5).

[2] = test system: collagen antibody-induced arthritis; assay: Mouse CAIA: hind paw / footpad volume (swelling, disease burden); assay type: in vivo, Balb C mice; design: Mean Disease Burden / Total Disease Burden (AUC) / Hind Limb Volume, Mean Diff. / Total Disease, Mean Diff.: unit not given here
Experimental: as §1
(§4) Factor H was formulated in 20 mM Citrate, 150 mM NaCl, pH=6. […] Ethanercept was formulated as Enbrel™ in saline. Vehicle was formulated in 20 mM Citrate, 150 mM NaCl, pH=6. […] The dosing volume for Factor H and BX12 was 25 mL/kg (0.500 mL/20 g mouse) and adjusted accordingly for body weight.
as §2
as §3, with “The” for “Hind paw volumes were measured on day 8, 11, 12, 13, 15, 19 and 22 (endpoint). The”

[3] = Mouse CAIA: body weight and tolerability; assay type: in vivo, Balb C mice; details: mouse, in vivo
Experimental: as §1, §2, §3

[4] = test system: collagen antibody-induced arthritis; assay: Mouse CAIA: ankle histology scores (H & E); assay type: in vivo, Balb C mice; design: key: 0: normal; 1: minimal infiltration of inflammatory cells in periarticular tissue; 2: mild infiltration; 3: moderate infiltration with moderate edema; 4: marked infiltration with marked edema; 5: severe infiltration with severe edema; details: individual animal
Experimental: as §1, §2, §3

[5] = test system: collagen antibody-induced arthritis; assay: Mouse CAIA: ankle histology scores (H & E); assay type: in vivo, Balb C mice; design: key: 0: normal; 1: minimal infiltration of pannus in cartilage and subchondral bone; 2: mild infiltration; 3: moderate infiltration; 4: marked infiltration; 5: severe infiltration; details: individual animal, score 0-5, endpoint day 22, listed as Group 2
Experimental: as §1, §2, §3

[6] = test system: collagen antibody-induced arthritis; assay: Mouse CAIA: clinical score; assay type: in vivo, Balb C mice
Experimental: The mice were treated with ArthritoMAb (anti-collagen) antibody cocktail (2 mg, i.v.) on day 1, followed 7 days later with an injection of LPS (50 μg, i.p.). On day 8, hind paw volumes were measured for each animal and distributed to various treatment groups.
as §4, §2

[7] = test system: kidney allografts in pre-sensitized recipients; assay: Kidney allograft survival in pre-sensitized recipients, RAPA / FK506 / CFH (Example 2); assay type: in vivo, C57BL/6 (B6) mice
From the text: Male C3H (H-2k) and C57BL/6 (B6, H-2b) mice (25-30 g) were used to determine the efficacy of Rapamycin (RAPA) in combination with Factor H (FH) during transplant rejection. C3H mice served as skin graft and kidney donors for pre-sensitization and kidney transplantation. Male C57BL/c (B6) mice were used as recipients. The B6 recipients were pre-sensitized by transplantation of the donor skin grafts, and were subsequently transplanted with kidney allografts between 15 and 20 days after the skin transplantation. […]
Mice were monitored daily for signs of rejection and were euthanized at the end point of the experiment, which was defined as when transplants developed functional deterioration due to severe rejection or on POD60 and POD100. Renal graft function was monitored by plasma creatinine (Cr) blood urea nitrogen (BUN) and hematocrit (Hct) levels by an I-Stat potable analyzer (Abaxis). Circulating donor specific antibodies (DSAs) were determined prior to kidney transplantation and at the endpoint of study by flow cytometry.

[8] = histopathology score, graded 1-5, hind limbs at endpoint, group value
[9] = Vehicle vs agent, Dunn's Multiple Comparison Test
[10] = ankle, group mean ± spread, 10 animals, score 0-5
[11] = Vehicle vs agent, Dunnett's Multiple Comparison Test

C[C@@H]1C[C@H]2[C@@H]3CCC4=CC(=O)C=C[C@]4(C)[C@@]3(F)[C@@H](O)C[C@]2(C)[C@@]1(O)C(=O)CO [Dex.]
Composite Score ([1]; histopathology composite, hind limbs at endpoint, group value): 0.2 ± 0.1 | Bone Resorption [1, 8]: 0 ± 0^ns | Cartilage Damage [1, 8]: 0 ± 0^ns | Exostosis [1, 8]: 0 ± 0 | Inflammation [1, 8]: 0.1 ± 0.1 | Pannus [1, 8]: 0.1 ± 0.1^ns

C[C@@H]1C[C@H]2[C@@H]3CCC4=CC(=O)C=C[C@]4(C)[C@@]3(F)[C@@H](O)C[C@]2(C)[C@@]1(O)C(=O)CO [Dexamethasone]
Cartilage, Summary (significance) [1, 9]: ns | Composite, Summary (significance) [1, 9]: * (= P < 0.05) | Exostosis, Summary (significance) [1, 9]: ** (= P < 0.01) | Inflammation, Summary (significance) [1, 9]: ** (= P < 0.01) | Pannus, Summary (significance) [1, 9]: ns | Composite Biohistopathology Score, group value ([1]; ankle, group mean ± spread, 10 animals): 0.2 ± 0.1 | Score From H & E: Bone Resorption, group value [1, 10]: 0.0 ± 0.0 | Score From H & E: Cartilage Damage, group value [1, 10]: 0.0 ± 0.0 | Score From H & E: Inflammation, group value [1, 10]: 0.1 ± 0.1 | Score From H & E: Pannus, group value [1, 10]: 0.1 ± 0.1 | Score From H & E: Periosteal/Exostotic Changes, group value [1, 10]: 0.0 ± 0.0 | Composite Biohistopathology Score ([1]; ankle, individual animal, endpoint day 22, listed as Group 2): 1 (2×) and 0 (8×) | Score From H & E: Inflammation ([1]; ankle, individual animal, score 0-5, endpoint day 22, listed as Group 2): 0 (9×) and 1 | Hind Limb Volume, Summary (significance) [2, 11]: *** (= P < 0.001) | Total Disease, Summary (significance) [2, 11]: *** (= P < 0.001) | Hind paw volume ([2]; day 8 of study, group mean, n 10): 0.35 mL | Hind paw volume ([2]; day 8 of study, individual animal): 0.42 mL and 0.39 mL (2×) and 0.37 mL and 0.35 mL and 0.34 mL and 0.33 mL and 0.31 mL (2×) and 0.3 mL | Hind paw volume ([2]; day 11 of study, group mean, n 10): 0.32 mL | Hind paw volume ([2]; day 11 of study, individual animal): 0.38 mL and 0.34 mL and 0.32 mL (3×) and 0.3 mL (3×) and 0.35 mL and 0.31 mL | Hind paw volume ([2]; day 12 of study, group mean, n 10): 0.34 mL | Hind paw volume ([2]; day 12 of study, individual animal): 0.34 mL (4×) and 0.28 mL and 0.35 mL and 0.32 mL and 0.31 mL and 0.39 mL and 0.37 mL | Hind paw volume ([2]; day 13 of study, group mean, n 10): 0.33 mL | Hind paw volume ([2]; day 13 of study, individual animal): 0.31 mL (2×) and 0.3 mL (2×) and 0.36 mL and 0.35 mL (2×) and 0.33 mL and 0.38 mL and 0.29 mL | Hind paw volume ([2]; day 16 of study, group mean, n 10): 0.31 mL | Hind paw volume ([2]; day 16 of study, individual animal): 0.37 mL and 0.33 mL and 0.29 mL (3×) and 0.38 mL and 0.26 mL and 0.3 mL (2×) and 0.27 mL | Hind paw volume ([2]; day 19 of study, group mean, n 10): 0.34 mL | Hind paw volume ([2]; day 19 of study, individual animal): 0.35 mL (4×) and 0.28 mL and 0.3 mL (2×) and 0.38 mL and 0.37 mL and 0.32 mL | Hind paw volume ([2]; day 22 of study, group mean, n 10): 0.33 mL | Hind paw volume ([2]; day 22 of study, individual animal): 0.39 mL and 0.42 mL and 0.3 mL and 0.32 mL and 0.29 mL (2×) and 0.35 mL (2×) and 0.31 mL and 0.26 mL | % Disease Suppression ([2]; days 8-22, individual animal): 95.1% | Total Disease Burden (AUC) ([2]; days 8-22, individual animal): −0.56 and −0.05 | Mean Body Weigh at Nadir [3]: −7.7% | Score From H & E: Bone Resorption ([4]; score 0-5, endpoint day 22): 0 | Score From H & E: Cartilage Damage ([4]; score 0-5, endpoint day 22): 0 | Score From H & E: Periosteal/Exostotic Changes ([4]; score 0-5, endpoint day 22): 0 | Score From H & E: Pannus ([4]; score 0-5, endpoint day 22, listed as Group 2): 0 | Score From H & E: Pannus [5]: 1 | Clinical Score, Summary (significance) [6, 9]: *** (= P < 0.001) | Clinical Score, Day of Study 8, Mean ([6]; group mean, n=10, day 8 (start of dosing)): 4.00 | Clinical Score, Day of Study 11, Mean ([6]; group mean, n=10, day 11): 0.10 | Clinical Score, Day of Study 12, Mean ([6]; group mean, n=10, day 12): 5.70 | Clinical Score, Day of Study 13, Mean ([6]; group mean, n=10, day 13): 6.00 | Clinical Score, Day of Study 16, Mean ([6]; group mean, n=10, day 16 (Jul. 1, 2011)): 0.00 | Clinical Score, Day of Study 19, Mean ([6]; group mean, n=10, day 19): 0.00 | Clinical Score, Day of Study 22, Mean ([6]; group mean, n=10, day 22 (endpoint)): 0.00 | Clinical Score, Day of Study 8 ([6]; individual animal, score 0-60, day 8 (start of dosing)): 5 (2×) and 10 (3×) and 0 (5×) | Clinical Score, Day of Study 11 ([6]; individual animal, score 0-60, day 11): 0 (9×) and 1 | Clinical Score, Day of Study 12 ([6]; individual animal, score 0-60, day 12): 0 (3×) and 10 (4×) and 5 (2×) and 7 | Clinical Score, Day of Study 13 ([6]; individual animal, score 0-60, day 13): 0 (4×) and 10 (6×) | Clinical Score, Day of Study 16 ([6]; individual animal, score 0-60, day 16 (Jul. 1, 2011)): 0 | Clinical Score, Day of Study 19 ([6]; individual animal, score 0-60, day 19): 0 | Clinical Score, Day of Study 22 ([6]; individual animal, score 0-60, day 22 (endpoint)): 0

CO[C@H]1C[C@@H]2CC[C@@H](C)[C@@](O)(O2)C(=O)C(=O)N2CCCC[C@H]2C(=O)O[C@H]([C@H](C)C[C@@H]2CC[C@@H](O)[C@H](OC)C2)CC(=O)[C@H](C)/C=C(\C)[C@@H](O)[C@@H](OC)C(=O)[C@H](C)C[C@H](C)/C=C/C=C/C=C/1C [RAPA, Rapamycin]
Survival ([7]; individual graft survival, one value per graft): 8 days (2×) and 37 days and 10 days and 11 days and 12 days and 22 days and 14 days and 16 days and 20 days | MST ([7]; mean survival time of cohort, untreated controls 8 days): 14 days
